We go through eleven compounds from patent publication US8324238B2.

Where two headings read alike, the source gives them in different places.

Data set [1] has as its system Bone Marrow Cells of Male Mice. Put plainly: Micronucleus test in bone marrow cells of male mice (Example 14). As to conditions: 70 mg/kg intraperitoneally.
Description: 70 mg/kg intraperitoneally administration of CPA is used as a positive control dosage (seven male ICR mice are used in each group). Twenty-four hours after single injection administration, all animals are sacrificed and the changes on the number of polychromatic erythrocyte with one or more nuclei (MNPCE) are evaluated with the changes on the total white blood cells and difference counts on the neutrophils and lymphocytes on the prepared blood. In addition, PCE/(PCE+normochromatic erythrocytes (NCE)) ratio are calculated by counting 500 erythrocytes for detecting possibility of cytotoxicity.
A further data set has as its system male ICR mice. The data set is described as follows: Mouse toxicity test, intraperitoneal (Example 6). The method, then: Male ICR mice are divided into six dose groups (five mice per group), and then fasted (no food is given except water) for 24 hours. […] A median lethal dose (LD50), an approximate lethal dose, and a maximum tolerate dose are determined after observation for 14 days.
Necropsy and histopathology findings are also performed.

For data set [2] the following is noted: mouse, in vivo. The method, then:
Seven week old male mice (ICR CD-1), 28-31 g of body weight upon receipt, are used.
Blood is sampled at 0.25, 0.5, 1, 1.5, 2, 3, 4, and 5 hours after dosing by orbital puncture.

The conditions of data set [3]: in vivo.
A short description of data set [4]: Pharmacokinetic study after intravenous administration in rats (Example 10). The following applies: 10 mg/kg i.v. in male SD rats.
The nature of data set [5]: Solubility of various salts in distilled water, converted into free base (Example 4B). As to conditions: room temperature, converted into the corresponding solubilities of free base.
A short description of data set [6]: Solubility of various salt forms in various solvents at room temperature (Example 4A). It is filed as physicochemical. As to conditions: read-out: Salt Form Solubility.
Data set [7] deals with gram positive bacteria, gram negative bacteria, methicillin resistant bacteria, penicillin resistant bacteria, and the known quinolone resistant strains. The following applies: cited from earlier work.
The conditions of data set [8]: See Korean Patent No. 10-566346; cited from earlier work.
The mark [9] stands for this setting: 24 hours after single injection.
[10] abbreviates: male ICR mice, intraperitoneal, 14 days observation.
[11] abbreviates: male, ICR, mouse, in vivo, ip, 14 days.

As for `O=P1(N(CCCl)CCCl)NCCCO1` (stereo not shown) [CPA, cyclophosphamide], in data set [1] (setting [9]), the “MNPCEs 2000 PCEs” value is 71.86 ± 10.43, the “PCE(PCE + NCE) ratio” value is reported as 0.36 ± 0.07, the “Proportions among 100 leukocytes (%) Lymphocytes” value is 75.71 ± 9.20% and the “Proportions among 100 leukocytes (%) Neutrophils” value was found to be 21.71 ± 9.45%. The Total leukocyte numbers in data set [1] (setting [9]) is 2.36 ± 0.55 ×10^3 cells mm^3. The “Change of MNPCE” value in [1] (CPA treated group) is given as “significant increase of MNPCE”. In data set [1] (male ICR mice, single), the “Loss of Locomotion” value is on record as 0/7 and the Mortality was 0/7.
For `CON=C1CN(c2nc3c(cc2F)c(=O)c(C(=O)O)cn3C2CC2)CC12CNC2` [Formate], in the data set with male ICR mice (setting [10]), the Approximate lethal dose was 500 to 1000 mg/kg and the Median lethal dose came to 716.24 mg/kg. Moreover, in the data set with male ICR mice (setting [11]), the Maximum tolerate dose worked out at 500 mg/kg.
On to `CON=C1CN(c2nc3c(cc2F)c(=O)c(C(=O)O)cn3C2CC2)CC12CNC2.Cl` [Hydrochloride], for which, in the data set with male ICR mice (setting [10]), the Approximate lethal dose was in the range of 250 to 500 mg/kg, the Maximum tolerate dose is 250 mg/kg and the Median lethal dose was determined as 481.93 mg/kg. For the same compound, in [2] (iv, 10 mg/kg), the C last was found to be 67 ng/mL, the Half-life turned out to be 1.259 h and the T last amounted to 4.0 h. Besides, in data set [2] (po, 100 mg/kg), the Half-life worked out at 2.205 h. Besides, the Fibrous peritonitis entry in data set [3] is recorded as “severe fibrous peritonitis”. Further, in data set [4], the “AUC 0-5 hr” value amounted to 6.070 ± 0.731, the AUC inf worked out at 6283 ± 804 ng·h/mL, the C last was found to be 137 ± 42 ng/mL and the Half-life came out at 1.061 ± 0.093 h. Besides, the T last in data set [4] came out at 5.0 ± 0.0 h.
One may read the Solubility as how much of the substance goes into solution per volume. Take `[Mg]` [Magnesium]: in data set [5], the Solubility is 20 µg/mL.
As for `CON=C1CN(c2nc3c(cc2F)c(=O)c(C(=O)O)cn3C2CC2)CC12CNC2` [Methanesulfonate], in the data set with male ICR mice (setting [10]), the Approximate lethal dose was 500 to 1000 mg/kg and the Median lethal dose is listed as 716.24 mg/kg. In addition, the Maximum tolerate dose in the data set on male ICR mice (setting [11]) was 500 mg/kg.
With `CON=C1CN(c2nc3c(cc2F)c(=O)c(C(=O)O)cn3C2CC2)CC12CNC2` [Parent Compound], the Solubility in data set [6] (aqueous solution with a pH of 1.2, simulated gastric fluid, pH 1.2, room temperature) is 7700 µg/mL; in data set [6] (aqueous solution with a pH of 6.8, aqueous buffer, pH 6.8, room temperature), 38 µg/mL; in data set [6] (solvent of pH 4.0, aqueous buffer, pH 4.0, room temperature) it was 6490 µg/mL. In addition, in data set [7], the Antimicrobial activity entry was “excellent antimicrobial activity”. Besides, the Aqueous solubility entry in data set [8] is given as “low”.
In the data set with male ICR mice (setting [10]), `CON=C1CN(c2nc3c(cc2F)c(=O)c(C(=O)O)cn3C2CC2)CC12CNC2` [Phosphate] showed an Approximate lethal dose of 250 to 500 mg/kg and a Median lethal dose of 356.91 mg/kg. This compound showed a Maximum tolerate dose in the data set with male ICR mice (setting [11]) of 250 mg/kg.
In the case of `O=C(O)c1ccccc1O` [Salicylate], the Solubility in data set [5] amounted to 110 µg/mL.
Fumarate: the Solubility in [5] was determined as 630 µg/mL.
Same read-out and setting: the result for Maleate reads 180 µg/mL; that for Mandelate, 1010 µg/mL.
